Test results: ChEMBL document CHEMBL3351798, “Discovery of the CCR1 antagonist, BMS-817399, for the treatment of rheumatoid arthritis” (J Med Chem, 2014)

Columns and labels:
[1] = target: T1, Nuclear receptor subfamily 1 group I member 2 (Homo sapiens, UniProt O75469); assay: Transactivation of human full-length PXR transfected in human HepG2 cells after 24 hrs by luciferase reporter gene assay; type: cell-based; conditions: for EC20: human, hepg2, 24 h
T1 sequence (O75469 whole entry): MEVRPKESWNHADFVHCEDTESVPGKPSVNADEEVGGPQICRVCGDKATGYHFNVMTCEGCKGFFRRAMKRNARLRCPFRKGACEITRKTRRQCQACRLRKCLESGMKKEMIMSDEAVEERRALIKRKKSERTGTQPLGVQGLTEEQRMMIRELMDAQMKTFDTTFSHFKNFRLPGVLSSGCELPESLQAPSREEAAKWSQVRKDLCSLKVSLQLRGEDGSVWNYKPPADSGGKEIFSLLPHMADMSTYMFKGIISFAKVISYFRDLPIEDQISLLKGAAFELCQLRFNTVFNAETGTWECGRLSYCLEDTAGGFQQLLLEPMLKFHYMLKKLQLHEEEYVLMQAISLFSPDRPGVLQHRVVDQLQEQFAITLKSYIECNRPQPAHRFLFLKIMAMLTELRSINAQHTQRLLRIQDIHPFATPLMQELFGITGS

[2] = Metabolic stability in rat liver microsomes assessed as compound remaining at 0.5 uM after 60 mins by UV-LC/MS analysis; type: ADME; conditions: read-out: Stability
[3] = Metabolic stability in human liver microsomes assessed as compound remaining at 0.5 uM after 60 mins by UV-LC/MS analysis; type: ADME; conditions: read-out: Stability
[4] = Metabolic stability in mouse liver microsomes assessed as compound remaining at 0.5 uM after 60 mins by UV-LC/MS analysis; type: ADME; conditions: read-out: Stability
[5] = target: T2, C-C chemokine receptor type 1 (Homo sapiens, UniProt P32246); assay: Displacement of [125I]MIP-1alpha from CCR1 in human THP1 cells; type: cell-based, THP-1
T2 sequence (P32246 whole entry): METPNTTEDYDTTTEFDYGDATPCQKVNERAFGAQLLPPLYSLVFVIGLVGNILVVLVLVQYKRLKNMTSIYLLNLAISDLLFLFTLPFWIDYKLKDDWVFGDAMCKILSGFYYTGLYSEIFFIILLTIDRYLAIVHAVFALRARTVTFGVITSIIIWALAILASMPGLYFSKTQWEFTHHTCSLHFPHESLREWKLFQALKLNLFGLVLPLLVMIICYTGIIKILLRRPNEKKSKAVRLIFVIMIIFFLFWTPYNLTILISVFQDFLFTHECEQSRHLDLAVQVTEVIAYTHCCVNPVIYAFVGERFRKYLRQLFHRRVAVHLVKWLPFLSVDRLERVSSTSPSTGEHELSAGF

[6] = Metabolic stability in rat liver microsomes assessed as compound remaining at 3 uM after 60 mins by UV-LC/MS analysis; type: ADME; conditions: read-out: Stability
[7] = Metabolic stability in human liver microsomes assessed as compound remaining at 3 uM after 60 mins by UV-LC/MS analysis; type: ADME; conditions: read-out: Stability
[8] = Metabolic stability in mouse liver microsomes assessed as compound remaining at 3 uM after 60 mins by UV-LC/MS analysis; type: ADME; conditions: read-out: Stability

| SMILES | EC50 [1] [nM] | remaining at 1 h, 0.5 µM [2] [%] | remaining at 1 h, 0.5 µM [3] [%] | remaining at 1 h, 0.5 µM [4] [%] | IC50 [5] [nM] | EC20 [1] [nM] | remaining at 1 h, 3 µM [6] [%] | remaining at 1 h, 3 µM [7] [%] | remaining at 1 h, 3 µM [8] [%] |
| --- | --- | --- | --- | --- | --- | --- | --- | --- | --- |
| CC(C)[C@@H](NC(=O)CCC(C)(C)O)C(=O)N1CC[C@](O)(c2ccc(Cl)cc2)C(C)(C)C1 | 25000 | 35 | 91 | 74 | 2 | – | – | – | – |
| CC(C)[C@@H](NC(=O)Nc1ccccc1)C(=O)N1CC[C@](O)(c2ccc(Cl)cc2)C(C)(C)C1 | – | – | – | – | 20 | – | – | – | – |
| CC(C)[C@@H](NC(=O)N1CCCC1)C(=O)N1CC[C@](O)(c2ccc(Cl)cc2)C(C)(C)C1 | – | – | – | – | 9 | 800 | 11 | 2 | 19 |
| CC(C)[C@@H](NC(=O)NC[C@H](C)O)C(=O)N1CC[C@](O)(c2ccc(Cl)cc2)C(C)(C)C1 | > 25000 | 79 | 88 | 95 | 2 | – | – | – | – |
| CC(C)[C@@H](NC(=O)C[C@@H](C)O)C(=O)N1CC[C@](O)(c2ccc(Cl)cc2)C(C)(C)C1 | 7800 | – | – | – | 2 | – | 79 | 87 | 85 |
| CC[C@@H](C)NC(=O)N[C@@H](C(=O)N1CC[C@](O)(c2ccc(Cl)cc2)C(C)(C)C1)C(C)C | – | – | – | – | 3 | 5200 | 85 | 59 | 72 |
| CC(C)[C@@H](NC(=O)NC[C@@H](C)O)C(=O)N1CC[C@](O)(c2ccc(Cl)cc2)C(C)(C)C1 | > 25000 | 78 | 88 | 86 | 2 | – | – | – | – |
| CC(C)[C@@H](NC(=O)CC(C)(C)O)C(=O)N1CC[C@](O)(c2ccc(Cl)cc2)C(C)(C)C1 | 2300 | – | – | – | 3 | – | 84 | 100 | 100 |
| CC(C)[C@@H](NC(=O)N[C@H]1CC[C@@H](O)C1)C(=O)N1CC[C@](O)(c2ccc(Cl)cc2)C(C)(C)C1 | 19000 | – | – | – | 3 | – | 83 | 92 | 100 |
| CC(C)[C@@H](NC(=O)NCc1ccccc1)C(=O)N1CC[C@](O)(c2ccc(Cl)cc2)C(C)(C)C1 | – | – | – | – | 1 | 2200 | 1 | 3 | 2 |
| CC(C)[C@@H](NC(=O)N[C@H]1CC[C@H](O)C1)C(=O)N1CC[C@](O)(c2ccc(Cl)cc2)C(C)(C)C1 | 5700 | – | – | – | 3 | – | 96 | 99 | 100 |
| CC(C)[C@@H](NC(=O)N[C@@H]1CC[C@@H](O)C1)C(=O)N1CC[C@](O)(c2ccc(Cl)cc2)C(C)(C)C1 | > 50000 | – | – | – | 4 | – | 84 | 100 | 100 |
| CC(C)[C@@H](NC(=O)N[C@@H]1CC[C@H](O)C1)C(=O)N1CC[C@](O)(c2ccc(Cl)cc2)C(C)(C)C1 | > 50000 | – | – | – | 2 | – | 75 | 76 | 86 |
| CC[C@H](C)NC(=O)N[C@@H](C(=O)N1CC[C@](O)(c2ccc(Cl)cc2)C(C)(C)C1)C(C)C | – | – | – | – | 2 | 8700 | 89 | 65 | 87 |
| CC(C)[C@@H](NC(=O)NC1CCCC1)C(=O)N1CC[C@](O)(c2ccc(Cl)cc2)C(C)(C)C1 | – | – | – | – | 2 | 7100 | 57 | 77 | 68 |
| CC(C)[C@@H](NC(=O)C[C@H](C)O)C(=O)N1CC[C@](O)(c2ccc(Cl)cc2)C(C)(C)C1 | – | – | – | – | 11 | – | – | – | – |
